In US5358951A, “Angiotensin II receptor blocking 2, 3, 6 substituted quinazolinones” (American Cyanamid Company, priority 1993, dated 1994):

Test system: vasopressor response of angiotensin II
Assay: AII Challenge: antagonism of angiotensin II vasopressor response;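 on Response Average Change: post-dose Angiotensin II-evoked rise in systolic blood pressure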
Format: in vivo
Settings: for inhibition in vivo at 3 mg/kg / inhibition in vivo at 10 mg/kg / inhibition in vivo at 5 mg/kg: Rattus norvegicus; for inhibition in vivo at 3 mg/kg / inhibition in vivo at 10 mg/kg: iv; for inhibition in vivo at 5 mg/kg: po
Outline: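 Conscious male SHR (16-20 weeks) with aortic and caval cannulae received angiotensin II at 0.05 and 0.1 ug/kg i.v. before and 30-300 min after compound dosing (i.v., i.p. or oral). Blockade is expressed as % of each rat's predose rise in systolic pressure.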

[1] = 0.5 h, 3 mg/kg I.V., AII 0.05 mcg/kg IV, 30 min post dose
[2] = 0.5 h, 3 mg/kg I.V., AII 0.1 mcg/kg IV, 30 min post dose
[3] = 1 h, 3 mg/kg I.V., AII 0.05 mcg/kg IV, 60 min post dose
[4] = 1 h, 3 mg/kg I.V., AII 0.1 mcg/kg IV, 60 min post dose
[5] = 2 h, 3 mg/kg I.V., AII 0.05 mcg/kg IV, 120 min post dose
[6] = 2 h, 3 mg/kg I.V., AII 0.1 mcg/kg IV, 120 min post dose
[7] = 3 h, 3 mg/kg I.V., AII 0.1 mcg/kg IV, 180 min post dose
[8] = […], 3 mg/kg I.V., AII 0.05 mcg/kg IV, 90 min post dose

Compound: CCCCc1nc2ccc([C@@H]3C[C@H]4CCCCN4O3)cc2c(=O)n1Cc1ccc(-c2ccccc2-c2nnn[nH]2)cc1 (relative stereo) [Example 60, (Cis)-2-Butyl-6-(hexahydro-2H-isoxazolo[2,3-a]pyridin-2-yl)-3-[[2'-(1H-tetrazol-5-yl)-[1,1'-biphenyl]-4-yl]methyl]-4(3H)-quinazolinone]
- Response Average Change (3 mg/kg I.V., AII 0.05 mcg/kg IV, 240 min post dose): 15 mmHg
- Response Average Change (3 mg/kg I.V., AII 0.05 mcg/kg IV, 300 min post dose): 15 mmHg
- Response Average Change (3 mg/kg I.V., AII 0.1 mcg/kg IV, 240 min post dose): 18.5 mmHg
- Response Average Change (3 mg/kg I.V., AII 0.1 mcg/kg IV, 300 min post dose): 30 mmHg
- Response Average Change (10 mg/kg I.V., AII 0.05 mcg/kg IV, 30 min post dose): 0 mmHg
- Response Average Change (10 mg/kg I.V., AII 0.05 mcg/kg IV, 60 min post dose): 7.5 mmHg
- Response Average Change (10 mg/kg I.V., AII 0.05 mcg/kg IV, 90 min post dose): 14 mmHg
- Response Average Change (10 mg/kg I.V., AII 0.05 mcg/kg IV, 120 min post dose): 9.5 mmHg
- Response Average Change (10 mg/kg I.V., AII 0.05 mcg/kg IV, 180 min post dose): 12.5 mmHg
- Response Average Change (10 mg/kg I.V., AII 0.05 mcg/kg IV, 240 min post dose): 17 mmHg
- Response Average Change (10 mg/kg I.V., AII 0.05 mcg/kg IV, 300 min post dose): 12.5 mmHg
- Response Average Change (10 mg/kg I.V., AII 0.1 mcg/kg IV, 30 min post dose): 0 mmHg
- Response Average Change (10 mg/kg I.V., AII 0.1 mcg/kg IV, 60 min post dose): 7.5 mmHg
- Response Average Change (10 mg/kg I.V., AII 0.1 mcg/kg IV, 90 min post dose): 15 mmHg
- Response Average Change (10 mg/kg I.V., AII 0.1 mcg/kg IV, 120 min post dose): 12.5 mmHg
- Response Average Change (10 mg/kg I.V., AII 0.1 mcg/kg IV, 180 min post dose): 21.5 mmHg
- Response Average Change (10 mg/kg I.V., AII 0.1 mcg/kg IV, 240 min post dose): 12.5 mmHg
- Response Average Change (10 mg/kg I.V., AII 0.1 mcg/kg IV, 300 min post dose): 22.5 mmHg
- inhibition in vivo at 3 mg/kg [1]: 80%
- inhibition in vivo at 3 mg/kg [2]: 69%
- inhibition in vivo at 10 mg/kg (0.5 h, 10 mg/kg I.V., AII 0.05 mcg/kg IV, 30 min post dose): 100%
- inhibition in vivo at 10 mg/kg (0.5 h, 10 mg/kg I.V., AII 0.1 mcg/kg IV, 30 min post dose): 100%
- inhibition in vivo at 3 mg/kg [3]: 73%
- inhibition in vivo at 3 mg/kg [4]: 79%
- inhibition in vivo at 10 mg/kg (1 h, 10 mg/kg I.V., AII 0.05 mcg/kg IV, 60 min post dose): 82%
- inhibition in vivo at 10 mg/kg (1 h, 10 mg/kg I.V., AII 0.1 mcg/kg IV, 60 min post dose): 85%
- inhibition in vivo at 3 mg/kg [5]: 73%
- inhibition in vivo at 3 mg/kg [6]: 56%
- inhibition in vivo at 10 mg/kg (2 h, 10 mg/kg I.V., AII 0.05 mcg/kg IV, 120 min post dose): 77%
- inhibition in vivo at 10 mg/kg (2 h, 10 mg/kg I.V., AII 0.1 mcg/kg IV, 120 min post dose): 74%
- inhibition in vivo at 3 mg/kg [7]: 44%
- inhibition in vivo at 10 mg/kg (3 h, 10 mg/kg I.V., AII 0.05 mcg/kg IV, 180 min post dose): 70%
- inhibition in vivo at 10 mg/kg (3 h, 10 mg/kg I.V., AII 0.1 mcg/kg IV, 180 min post dose): 56%
- inhibition in vivo at 3 mg/kg (4 h, 3 mg/kg I.V., AII 0.05 mcg/kg IV, 240 min post dose): 59%
- inhibition in vivo at 3 mg/kg (4 h, 3 mg/kg I.V., AII 0.1 mcg/kg IV, 240 min post dose): 49%
- inhibition in vivo at 10 mg/kg (4 h, 10 mg/kg I.V., AII 0.05 mcg/kg IV, 240 min post dose): 59%
- inhibition in vivo at 10 mg/kg (4 h, 10 mg/kg I.V., AII 0.1 mcg/kg IV, 240 min post dose): 74%
- inhibition in vivo at 3 mg/kg (5 h, 3 mg/kg I.V., AII 0.05 mcg/kg IV, 300 min post dose): 59%
- inhibition in vivo at 3 mg/kg (5 h, 3 mg/kg I.V., AII 0.1 mcg/kg IV, 300 min post dose): 18%
- inhibition in vivo at 10 mg/kg (5 h, 10 mg/kg I.V., AII 0.05 mcg/kg IV, 300 min post dose): 70%
- inhibition in vivo at 10 mg/kg (5 h, 10 mg/kg I.V., AII 0.1 mcg/kg IV, 300 min post dose): 54%
- inhibition in vivo at 3 mg/kg [8]: 73%
- inhibition in vivo at 10 mg/kg ([…], 10 mg/kg I.V., AII 0.05 mcg/kg IV, 90 min post dose): 66%
- inhibition in vivo at 10 mg/kg ([…], 10 mg/kg I.V., AII 0.1 mcg/kg IV, 90 min post dose): 69%

Compound: CCCCc1nc2ccc(C3ON4CCCC4C3C(=O)OCC)cc2c(=O)n1Cc1ccc(-c2ccccc2-c2nnn[nH]2)cc1 (stereo not drawn) [Example 62, Ethyl 2-[2-butyl-3,4-dihydro-4-oxo-3-[[2'-(1H-tetrazol-5-yl)[1,1'-biphenyl]-4-yl]methyl]-6quinazolinyl]hexahydro-pyrrolo[1,2-b]isoxazole3-carboxylate]
- Response Average Change (3 mg/kg I.V., AII 0.05 mcg/kg IV, 30 min post dose): 14 mmHg
- Response Average Change (3 mg/kg I.V., AII 0.05 mcg/kg IV, 60 min post dose): 18 mmHg
- Response Average Change (3 mg/kg I.V., AII 0.05 mcg/kg IV, 90 min post dose): 30 mmHg
- Response Average Change (3 mg/kg I.V., AII 0.05 mcg/kg IV, 120 min post dose): 25 mmHg
- Response Average Change (3 mg/kg I.V., AII 0.05 mcg/kg IV, 180 min post dose): 33.5 mmHg
- Response Average Change (3 mg/kg I.V., AII 0.1 mcg/kg IV, 30 min post dose): 10 mmHg
- Response Average Change (3 mg/kg I.V., AII 0.1 mcg/kg IV, 60 min post dose): 36 mmHg
- Response Average Change (3 mg/kg I.V., AII 0.1 mcg/kg IV, 90 min post dose): 40 mmHg
- Response Average Change (3 mg/kg I.V., AII 0.1 mcg/kg IV, 120 min post dose): 35 mmHg
- Response Average Change (3 mg/kg I.V., AII 0.1 mcg/kg IV, 180 min post dose): 35 mmHg
- Response Average Change (5 mg/kg P.O., AII 0.05 mcg/kg IV, 30 min post dose): 22.5 mmHg
- Response Average Change (5 mg/kg P.O., AII 0.05 mcg/kg IV, 60 min post dose): 37.5 mmHg
- Response Average Change (5 mg/kg P.O., AII 0.05 mcg/kg IV, 120 min post dose): 40 mmHg
- Response Average Change (5 mg/kg P.O., AII 0.05 mcg/kg IV, 180 min post dose): 25 mmHg
- Response Average Change (5 mg/kg P.O., AII 0.05 mcg/kg IV, 240 min post dose): 40 mmHg
- Response Average Change (5 mg/kg P.O., AII 0.1 mcg/kg IV, 30 min post dose): 43.5 mmHg
- Response Average Change (5 mg/kg P.O., AII 0.1 mcg/kg IV, 60 min post dose): 43.5 mmHg
- Response Average Change (5 mg/kg P.O., AII 0.1 mcg/kg IV, 90 min post dose): 45 mmHg
- Response Average Change (5 mg/kg P.O., AII 0.1 mcg/kg IV, 120 min post dose): 45 mmHg
- Response Average Change (5 mg/kg P.O., AII 0.1 mcg/kg IV, 180 min post dose): 47.5 mmHg
- Response Average Change (5 mg/kg P.O., AII 0.1 mcg/kg IV, 240 min post dose): 50 mmHg
- inhibition in vivo at 3 mg/kg [1]: 61%
- inhibition in vivo at 3 mg/kg [2]: 82%
- inhibition in vivo at 3 mg/kg [3]: 49%
- inhibition in vivo at 3 mg/kg [4]: 36%
- inhibition in vivo at 3 mg/kg [5]: 30%
- inhibition in vivo at 3 mg/kg [6]: 38%
- inhibition in vivo at 3 mg/kg (3 h, 3 mg/kg I.V., AII 0.05 mcg/kg IV, 180 min post dose): 6%
- inhibition in vivo at 3 mg/kg [7]: 38%
- inhibition in vivo at 3 mg/kg [8]: 15%
- inhibition in vivo at 3 mg/kg ([…], 3 mg/kg I.V., AII 0.1 mcg/kg IV, 90 min post dose): 29%
- inhibition in vivo at 5 mg/kg (0.5 h, 5 mg/kg P.O., AII 0.05 mcg/kg IV, 30 min post dose): 44%
- inhibition in vivo at 5 mg/kg (0.5 h, 5 mg/kg P.O., AII 0.1 mcg/kg IV, 30 min post dose): -5%
- inhibition in vivo at 5 mg/kg (1 h, 5 mg/kg P.O., AII 0.05 mcg/kg IV, 60 min post dose): 6%
- inhibition in vivo at 5 mg/kg (1 h, 5 mg/kg P.O., AII 0.1 mcg/kg IV, 60 min post dose): -5%
- inhibition in vivo at 5 mg/kg (2 h, 5 mg/kg P.O., AII 0.05 mcg/kg IV, 120 min post dose): 0%
- inhibition in vivo at 5 mg/kg (2 h, 5 mg/kg P.O., AII 0.1 mcg/kg IV, 120 min post dose): -8%
- inhibition in vivo at 5 mg/kg (3 h, 5 mg/kg P.O., AII 0.05 mcg/kg IV, 180 min post dose): 38%
- inhibition in vivo at 5 mg/kg (3 h, 5 mg/kg P.O., AII 0.1 mcg/kg IV, 180 min post dose): -14%
- inhibition in vivo at 5 mg/kg (4 h, 5 mg/kg P.O., AII 0.05 mcg/kg IV, 240 min post dose): 0%
- inhibition in vivo at 5 mg/kg (4 h, 5 mg/kg P.O., AII 0.1 mcg/kg IV, 240 min post dose): -20%
- inhibition in vivo at 5 mg/kg ([…], 5 mg/kg P.O., AII 0.05 mcg/kg IV, 90 min post dose): 19%
- inhibition in vivo at 5 mg/kg ([…], 5 mg/kg P.O., AII 0.1 mcg/kg IV, 90 min post dose): -8%
